Experimental data taken from patent US8778984B2, “Aldosterone synthase inhibitor” (Eli Lilly and Company, priority 2011, dated 2014).

Assays:
[1] = tested on: testosterone production from H295R cells; experiment: cells; assay type: cell-based, human; conditions: for inhibition of testosterone production (in words) / IC50: H295R cells; for IC50: Homo sapiens, NCI-H295R, 48 hours incubation, read-out: Testosterone IC50; for Selectivity ratio for aldosterone compared with testosterone: testosterone IC50 (H295R) relative to aldosterone IC50 (hcyp11B2)
Method: (§1) The human adrenocarcinoma cell line H295R is used to monitor the production of testosterone and estradiol in vitro. […] Various concentrations of test compounds in 1:3 dilution increments are added to the cell culture medium. After incubation for 48 hours, 100 μl culture medium is collected and d5-estradiol and d3-testosterone are added as ISs for estradiol and testosterone respectively.
(§2) An equal volume of sodium carbonate/sodium bicarbonate buffer (0.5 mol/L, pH 9.4) is added to the samples followed by freshly prepared dansyl chloride solution (50 μl, 20 mg/mL). Samples are mixed and incubated for 60 min at 60° C. The samples are then extracted 3× with EtOAc ([…]) using the FX, combining the organic layers in a new deep-well 96-well plate. The solvent is then dried in a GeneVac HT-4 or under nitrogen. The FX is used to reconstitute the samples in 50% MeOH/water ([…]) and the plates are heat-sealed.
(§3) A 40 μl aliquot of the sample is injected and a gradient from 20-100% MeOH in 0.95 min is initiated. An ABI QTRAP 4000 tandem mass spectrometer is used for MS/MS analysis in the positive ion mode. […] These peaks are separately integrated to give the peak areas. The area ratios of testosterone/IS and estradiol/IS are used to determine testosterone and estradiol concentrations by comparison to their respective standard curves. The detection limits for testosterone and estradiol are 0.1 ng/mL and 0.01 ng/mL respectively.

[2] = tested on: estradiol production from H295R cells; experiment: cells; assay type: cell-based, human; conditions: for inhibition of estradiol production (in words) / IC50: H295R cells; for IC50: Homo sapiens, NCI-H295R, 48 hours incubation, read-out: Estradiol IC50; for Selectivity ratio for aldosterone compared with estradiol: estradiol IC50 (H295R) relative to aldosterone IC50 (hcyp11B2)
Method: as §1, §2, §3

[3] = tested on: aldosterone production in rats; experiment: Inhibition of Aldosterone Synthase in Rats (rat sodium-deficiency diet model); assay type: in vivo; conditions: for % Inhibition 3 hrs / % Inhibition 6 hrs: inhibition of aldosterone vs vehicle; for % Inhibition 3 hrs / Aldosterone (pg/mL) 3 hrs: 3 hrs post oral dose; for % Inhibition 3 hrs / % Inhibition 6 hrs / Aldosterone (pg/mL) 3 hrs / Aldosterone (pg/mL) 6 hrs: Example 1 10.0 mg/kg, Example 49 30.0 mg/kg, Fadrozole 1.0 mg/kg; for % Inhibition 6 hrs / Aldosterone (pg/mL) 6 hrs: 6 hrs post oral dose; for effect on aldosterone production in vivo (in words) / Aldosterone (pg/mL) 3 hrs / Aldosterone (pg/mL) 6 hrs: rat Na-deficient diet model; for effect on aldosterone production in vivo (in words): summary of Table 18; for Aldosterone (pg/mL) 3 hrs / Aldosterone (pg/mL) 6 hrs: serum
Method: The effect of compounds on aldosterone production in rats is assessed using the rat sodium-deficiency diet model. […] At 3 hours post dose rats are bled (˜0.5 mL) from the ocular orbit under isoflurane anesthesia. At 6 hours post-dose the rats are euthanized with CO2 and bled by cardiac puncture. Blood samples are clotted at least 30 minutes and serum is prepared and stored at approximately −80° C. until assayed. Aldosterone, steroids, and compound exposure are analyzed by mass spectroscopy.

[4] = biological target: T1, cynomolgus monkey cyp11B2 (Macaca fascicularis, UniProt A0A2K5UPL9); experiment: Cynomolgus Monkey Aldosterone Inhibition Assay; assay type: cell-based; conditions: V79 cells expressing cynomolgus monkey cyp11B2; n=1; read-out: relative IC50, cynomolgus monkey aldosterone inhibition assay
T1 construct: expressed in transfected cells; host or cells: Chinese hamster fibroblast V79 cells
T1 sequence (A0A2K5UPL9 1-503): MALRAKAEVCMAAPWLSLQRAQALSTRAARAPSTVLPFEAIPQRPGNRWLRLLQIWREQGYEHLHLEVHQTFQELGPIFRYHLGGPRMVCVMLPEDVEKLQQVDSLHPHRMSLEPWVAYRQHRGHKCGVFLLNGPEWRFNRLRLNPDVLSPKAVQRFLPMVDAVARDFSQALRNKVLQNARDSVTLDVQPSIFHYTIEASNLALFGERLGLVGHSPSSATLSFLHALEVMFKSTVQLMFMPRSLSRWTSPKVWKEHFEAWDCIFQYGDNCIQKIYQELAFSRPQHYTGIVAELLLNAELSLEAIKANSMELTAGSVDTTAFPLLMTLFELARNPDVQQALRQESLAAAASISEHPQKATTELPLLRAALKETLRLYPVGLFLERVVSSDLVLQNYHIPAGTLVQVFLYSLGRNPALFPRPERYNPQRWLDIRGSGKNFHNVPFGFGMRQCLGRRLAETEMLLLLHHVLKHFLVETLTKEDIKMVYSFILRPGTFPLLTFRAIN
Method: Chinese hamster fibroblast cells (V79) constitutively expressing cynomolgus monkey cyp11B2 is established by transfection with a mammalian expression vector harboring the cynomolgus monkey cyp11B2 cDNA. This cell line was used to measure the activity of compounds in inhibiting […] from cynomolgus monkey enzyme. Cell culture condition and aldosterone detection method is performed following the same protocol described in the “Aldosterone inhibition assay”.

Row | SMILES | inhibition of testosterone production (in words) [1] | IC50 [1] [µM] | Selectivity ratio for aldosterone compared with testosterone [1] | inhibition of estradiol production (in words) [2] | IC50 [2] [µM] | Selectivity ratio for aldosterone compared with estradiol [2] | % Inhibition 3 hrs [3] [%] | % Inhibition 6 hrs [3] [%] | effect on aldosterone production in vivo (in words) [3] | Aldosterone (pg/mL) 3 hrs [3] [pg/mL] | Aldosterone (pg/mL) 6 hrs [3] [pg/mL] | IC50 [4] [µM]
1 | CC1(C)C[C@H](c2ccc(C#N)cc2)c2cn[nH]c21 (single isomer, unassigned) [Example 1] | weak inhibition | > 30 | >6000 | weak inhibition | 13.2 | 2640 | 48 | 46 | inhibit aldosterone production in vivo | 973 | 1380 | 0.00246
2 | CC1(C)CC(c2ccc(C#N)cc2F)c2cn[nH]c21 (single isomer, unassigned; isomer 1) [Example 49, 4-(6,6-Dimethyl-4,5-dihydro-1H-cyclopenta[c]pyrazol-4-yl)-3-fluoro-benzonitrile, isomer 1] | weak inhibition | > 30 | >4285 | weak inhibition | 22 | 3143 | 46 | 33 | inhibit aldosterone production in vivo | 1008 | 1704 | 0.0041
